From patent US11872237B2, “Pharmaceutical composition and preparation method thereof” (Ascentage Pharma (Suzhou) Co., Ltd., priority 2019, dated 2024)
≈ marks a conversion by molar mass, not a printed value.

Experiments:
cancer cells = details: see WO2014113413; cited from earlier work
[1] = General statements on solubility and stability of Compound 1 versus pH; format: physicochemical
[2] = Effect of pH value on the solubility of Compound 1 (solution appearance); format: physicochemical
Procedure: (§1) Experimental method: Referring to the process of preparation of solution in Preparation Example 1, the preparation was carried out in an amount of 10 vials, and the solutions with different pH values were prepared according to the following formulations (contents in each vial), and the properties of the prepared solutions were observed.
The thicker of the milky white, the worse of the solubility.

[3] = Solubility of Compound 1 in different co-solvents (excess compound, HPLC analysis); format: physicochemical; details: organic solvent or mixture, thermodynamic from solid, about half an hour
From the text: 2. The effects of different co-solvents on the solubility of Compound 1 were observed. The specific results are as follows.
Experimental method: Compound 1 was taken in excess amount, suspended in various solvents, sampled and filtered after about half an hour, and analyzed by HPLC analysis.

[4] = Effect of surfactant on solubility and clarity of Compound 1 (appearance observation); format: physicochemical; details: PEG400, ethanol, mannitol
Procedure: 3. The effects of the Polyoxyl 35 Castor Oil ester used by the present invention as surfactant on the solubility and clarity of the compound 1 were further tested. The specific results are as follows.
as §1, with “vial) for appearance observation.” for “vial), and the properties of the prepared solutions were observed.”
In addition, the effect of Tween80 as surfactant of the present invention on the solubility and clarity of compound 1 was tested. Specific results are as follows.
Experimental Method: referring to the process of preparation of solution in Preparation Example 1, the solution was prepared according to the formulation in the Table below for appearance observation.
Similarly, the effect of Solutol HS-15 as surfactant of the present invention on the solubility and clarity of compound 1 was tested. Specific results are as follows.

In the case of Cc1c(S(C)(=O)=O)c(-c2cc(F)cc(N3CCN(c4ccc(NS(=O)(=O)c5ccc(N[C@H](CCN6CCC(C(=O)OCCCP(=O)(O)O)CC6)CSc6ccccc6)c(S(=O)(=O)C(F)(F)F)c5)cc4)CC3)c2)c(-c2ccc(Cl)cc2)n1C(C)C [Compound 1, (3R)-1-(3-(4-(4-(4-(3-(2-(4-chlorophenyl)-1-isopropyl-4-methylsulfonyl-5-methyl-1H-pyrrol-3-yl)-5-fluorophenyl)piperazin-1-yl)-phenylaminosulfonyl)-2-trifluoromethylsulfonyl-anilino)-4-phenylthio-butyl)-piperidine-4-carboxylic acid 3-phosphonopropyl ester], the “inducing apoptosis of cancer cells” value (cancer cells) is given as “effective”, the solubility ([1]; acidic or near-neutral solutions) is given as “extremely poorly soluble” and the dissolution ([1]; alkaline conditions) is given as “greatly improved”. The stability ([1]; alkaline conditions) was “unstable”, the “solubility of Compound 1” value ([2]; pH 7.888, Table 1 formulation) was “poor” and the “solubility of Compound 1” value ([2]; pH 8.528, Table 1 formulation) was “acceptable”. For the same molecule, the “solubility of Compound 1” value ([2]; pH 9.016, Table 1 formulation) was “acceptable”, the “solubility of Compound 1” value ([2]; pH 9.326, Table 1 formulation) was “best solubility” and the solubility ([3]; solvent Ethanol, 25° C.) was 850 µg/mL (≈ 663 µM). It also gave a solubility ([3]; solvent Glycerin, 25° C.) of 450 µg/mL (≈ 351 µM), a solubility ([3]; solvent PEG400, 25° C.) of 16800 µg/mL (≈ 13100 µM) and a solubility ([3]; solvent Propylene glycol, 25° C.) of 3100 µg/mL (≈ 2420 µM). The Solution appearance ([4]; Table 3a: compound 1 10 mg/ml, Tween80 50 mg, pH 9.0) was “Transparent solution” and the Solution appearance ([4]; Table 3b: compound 1 10 mg/ml, Solutol HS-15 240 mg, pH 8.7) was “Transparent solution”.
